Laboratory results reported in ChEMBL document CHEMBL3046905, “Synthesis, biological evaluation and molecular docking studies of 1,3-benzoxazine derivatives as potential anticancer agents” (Med Chem Res, 2013).
pIC50: −log10 of the molar value. Calls of active or inactive are those of the source. No cut-off for these calls is given here.

Tests used:
MCF7 [1] = assay: Growth inhibition of Homo sapiens (human) MCF7 cells at 30 ug/ml after 48 hr by MTT assay relative to control; type: functional; conditions: MCF7, 48 h, read-out: GI
MCF7 [2] = assay: Growth inhibition of Homo sapiens (human) MCF7 cells after 48 hr by MTT assay; type: functional, cell-based; conditions: for pIC50: Homo sapiens, MCF7, 48 h, read-out: IC50; for IC50: mcf7
MCF7 [3] = assay: Growth inhibition of Homo sapiens (human) MCF7 cells at 7.5 ug/ml after 48 hr by MTT assay relative to control; type: functional; conditions: for inhibition of growth at 7.5 µg/mL: MCF7, 48 h, read-out: GI
MCF7 [4] = assay: Growth inhibition of Homo sapiens (human) MCF7 cells at 60 ug/ml after 48 hr by MTT assay relative to control; type: functional; conditions: MCF7, 48 h, read-out: GI
MCF7 [5] = assay: Growth inhibition of Homo sapiens (human) MCF7 cells at 15 ug/ml after 48 hr by MTT assay relative to control; type: functional; conditions: for inhibition of growth at 15 µg/mL: MCF7, 48 h, read-out: GI

SMILES | pIC50 (MCF7 [2]) | IC50 (MCF7 [2]) | inhibition of growth at 30 µg/mL (MCF7 [1]) | growth inhibition (GI) (MCF7 [3]) | inhibition of growth at 60 µg/mL (MCF7 [4]) | inhibition of growth at 15 µg/mL (MCF7 [5]) | inhibition of growth at 7.5 µg/mL (MCF7 [3]) | growth inhibition (GI) (MCF7 [5])
O=c1cc(-c2ccccc2)oc2ccc(N3COc4c(Br)cccc4C3)cc12 | 4.71 | – | 71.6% | inactive | 81.8% | 37.8% | – | –
Cc1ccc2c(c1)CN(c1ccc3oc(-c4ccccc4)cc(=O)c3c1)CO2 | 4.53 | – | 56.9% | – | 79.5% | 31% | 16.5% | –
COc1cc2c(c(OC)c1)OCN(c1ccc3oc(-c4ccccc4)cc(=O)c3c1)C2 | 5.10 | – | 79% | – | 99.1% | 60% | 48.9% | –
Cc1cc(C)c2c(c1)CN(c1ccc3c(=O)cc(-c4ccccc4)oc3c1)CO2 | 4.21 | – | 26.8% | – | 48.4% | – | 11.2% | inactive
Cc1cccc2c1OCN(c1ccc3c(=O)cc(-c4ccccc4)oc3c1)C2 | 4.83 | – | 57.8% | – | 66.6% | 54.9% | 43.9% | –
O=c1cc(-c2ccccc2)oc2ccc(N3COc4ccccc4C3)cc12 | 4.56 | – | 68.5% | – | 92.7% | 34% | 8.7% | –
COc1cc2c(c(OC)c1)OCN(c1ccc3c(=O)cc(-c4ccccc4)oc3c1)C2 | 4.92 | – | 75.9% | – | 88.9% | 62.9% | 45.8% | –
O=c1cc(-c2ccccc2)oc2ccc(N3COc4c(cccc4[N+](=O)[O-])C3)cc12 | 4.55 | – | 61.9% | – | 72.9% | 55.9% | 8.2% | –
O=c1cc(-c2ccccc2)oc2ccc(N3COc4c(Br)cc(Br)cc4C3)cc12 | – | Not Active | 16.1% | – | 34.5% | 13.6% | 6.54% | –

Now from value to compound, other results behind:

pIC50 (MCF7 [2]) | IC50 (MCF7 [2]) | SMILES | inhibition of growth at 30 µg/mL (MCF7 [1]) | growth inhibition (GI) (MCF7 [3]) | inhibition of growth at 60 µg/mL (MCF7 [4]) | inhibition of growth at 15 µg/mL (MCF7 [5]) | inhibition of growth at 7.5 µg/mL (MCF7 [3]) | growth inhibition (GI) (MCF7 [5])
5.14 | – | COc1cccc2c1C(=O)c1c(O)c3c(c(O)c1C2=O)C[C@@](O)(C(=O)CO)C[C@@H]3O[C@H]1C[C@H](N)[C@H](O)[C@H](C)O1 [DOXORUBICIN] | 88.9% | – | 99.5% | 70.3% | 50.8% | –
4.35 | – | O=c1cc(-c2ccccc2)oc2cc(N3COc4c(Cl)cc(Cl)cc4C3)ccc12 | 34.6% | inactive | 68.8% | 11.8% | – | –
– | Not Active | O=c1cc(-c2ccccc2)oc2cc(N3COc4c(cccc4[N+](=O)[O-])C3)ccc12 | 5.65% | inactive | 15.7% | 1.96% | – | –
– | Not Active | O=c1cc(-c2ccccc2)oc2cc(N3COc4c(Br)cc(Br)cc4C3)ccc12 | 11.1% | – | 26.5% | 1.64% | 1.48% | –
– | Not Active | O=c1cc(-c2ccccc2)oc2cc(N3COc4ccccc4C3)ccc12 | 12.7% | – | 19.3% | 3.89% | 2.65% | –
– | Not Active | O=c1cc(-c2ccccc2)oc2cc(N3COc4c(Br)cccc4C3)ccc12 | 7.89% | – | 19.5% | 5.64% | 2.21% | –
4.84 | – | Cc1cccc2c1OCN(c1ccc3oc(-c4ccccc4)cc(=O)c3c1)C2 | 72.4% | – | 85.1% | 60.9% | 30.4% | –
4.77 | – | COc1cccc2c1OCN(c1ccc3oc(-c4ccccc4)cc(=O)c3c1)C2 | 67.8% | – | 91.9% | 54% | 32.5% | –
4.92 | – | O=c1cc(-c2ccccc2)oc2ccc(N3COc4c(Cl)cc(Cl)cc4C3)cc12 | 74% | – | 80.3% | 61.3% | 32.8% | –
